Molecules are shown by their SMILES. Where “and” joins values, the source holds several entries; their conditions need not be identical. Equal entries are not always repeated.

One assay relates to influenza A viruses. Conditions: cited from earlier work.
A further assay relates to A/H1N1 viruses. Set-up: species or system influenza A/H1N1 virus.
For a further assay, the system named is pandemic (H1N1) viruses. Also on record: species or system pandemic influenza A (H1N1) virus.
Assay [1] deals with pandemic (H1N1) 2009 viruses. Conditions: cited from earlier work.
The subject of another assay is Type B influenza. Also on record: species or system influenza B virus.
The subject of another assay is A/H3N2 viruses. Set-up: species or system influenza A/H3N2 virus.

As to `NC12CC3CC(CC(C3)C1)C2` [amantadine], in the assay with influenza A viruses, the Amantadine resistance is listed as 33-100%.
Take `CCOC(=O)C1=C[C@@H](OC(CC)CC)[C@H](NC(C)=O)[C@@H](N)C1` [oseltamivir]: in the assay on A/H1N1 viruses, the “Total resistant samples/Total samples” value was 35/38 and 15/23; the “oseltamivir resistant with H274Y mutation” value came out at 82%. The “oseltamivir susceptibility by H274Y allelic discrimination” value in the assay on pandemic (H1N1) viruses is recorded as “all were sensitive”. Moreover, in assay [1], the oseltamivir-resistant viruses detected result is listed as “less than 1 per cent”. Besides, the “oseltamivir susceptibility by NA gene markers” value with Type B influenza is given as “all type B isolates were sensitive”. For the same molecule, in the assay with A/H3N2 viruses, the oseltamivir-resistance conferring mutations entry is recorded as “none of the isolates had any of the reported oseltamivir-resistance conferring mutations”.

The record behind these values is publication PMC4216499 (The Indian Journal of Medical Research, 2014).
